In patent US20050228050A1, “Novel stable crystals of substituted phenylpropionic acid derivative and process for producing the same” (priority 2001, published 2005):

Assays:
[1] = Differential thermal analysis (DTA) and thermogravimetry (TG) of crystals; type: physicochemical
Procedure: Differential Thermal Analysis (DTA) and Thermogravimetry (TG)
The thermal stability of crystals was compared by using apparatus for thermal analysis (SII: TG/DTA6200). […] With the new type crystals, the endothermic phenomenon due to transition was seen from 131.4° C. and the endothermic peak due to melting was shown at 132.0° C.

[2] = Hygroscopicity of crystals; type: physicochemical; settings: stated without described test

CC[C@@H](Cc1ccc(OC)c(C(=O)NCc2ccc(Oc3ccc(F)cc3)cc2)c1)C(=O)O [new type crystals, (S)-2-[[3-[N-[4-[(4-fluorophenoxy)phenyl]methyl]-carbamoyl]-4-methoxyphenyl]methyl]butanoic acid]
weight change in thermogravimetry ([1]; TG/DTA6200 thermal analysis, FIG. 3 and 4): no weight change | thermal stability of crystals ([1]; conclusion from DTA/TG comparison of new and old type crystals): thermally stable | hygroscopicity [2]: no hygroscopicity
